# In patent US7169932B2 (priority 2001, dated 2007):
# Columns and labels:
# HIV-1 protease (Q7S) = molecular target: T1, HIV-1 protease (Q7S) (Human immunodeficiency virus type 1 group M subtype B, UniProt P04585, Q495S); assay: HIV-1 Protease RET Assay; format: biochemical; conditions: Ave. Ki (nM), RET assay, Q7S enzyme, pH 4.8, 37 C
# T1 construct: made in house
# Summary of the method: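 Ki values came from a RET assay on refolded Q7S protease (2 nM active dimer) cleaving RE(EDANS)SQNYPIVQK(DABCYL)R at 5 μM, read at ex 340/em 490 nm. Reactions ran 12 min at 37 C in 0.1M sodium acetate pH 4.8, 1M NaCl, 5 mM DTT, 10% DMSO; curves were fit with the Morrison tight-binding equation.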
# HIV-1 = assay: Cytopathic Effect (CPE) Inhibition Assay (XTT dye reduction); format: cell-based; conditions: Human immunodeficiency virus 1, 144 h, read-out: Ave CPE EC50 (mM), protection of infected cells, six days, XTT
# Summary of the method: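 CEM-SS or MT-2 cells infected with HIV-1 RF or NL4–3 (moi 0.025–0.819), 2×10^4 cells/well, incubated six days with half-log compound dilutions. Viability read by XTT formazan at 450 nm; EC50 is the concentration restoring 50% of uninfected-control formazan, CC50 from uninfected treated cells, therapeutic index CC50/EC50.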
# 46I, 84V, 90M virus = assay: Phenotypic susceptibility assay at Virologic, Inc.; format: cell-based, HIV-1; conditions: Human immunodeficiency virus 1
# Method: Compounds were tested in phenotypic susceptibility assays at Virologic, Inc., (See Petropoulos C. J., Parkin N. T., Limoli K. L., Lie Y. S., Wrin T., Huang W., Tian H., Smith D., Winslow G. A., Capon D J, Whitcomb J M. 2000, “A novel phenotypic drug susceptibility assay for human immunodeficiency virus type 1,” Antimicrob Agents Chemother 44(4):920–928) or using the assay described here. MT-2 cells were infected with either HIV-1 NL4–3 or HIV-1 NL4–3(184V/L90M) and incubated in the presence of serial 0.5 log dilutions of test compounds. Three days later, culture supernatants were collected and virus production, as determined by p24 ELISA, was assayed. Percent inhibition was calculated as p24 concentration in compound-treated samples as compared to infected, compound-free controls. Inhibition of viral replication is determined by measuring reduction in HIV p24 present in the culture supernatant, using a Beckman-Coulter p24 HIV-1 Ag EIA kit and following the supplied protocol. Absorbance is read on a MRX microplate reader (Dynex Technologies). The EC50 was calculated as the concentration of compound that effected a decrease in the p24 production by infected, compound-treated cells to 50% of that produced by infected, compound-free cells.
smiles,measurement,setting,value
"CCOc1cccc(CNC(=O)[C@H]2N(C(=O)[C@@H](O)[C@H](Cc3ccccc3)NC(=O)c3cccc(O)c3C)CSC2(C)C)c1 [Example A26, (R)-3-((2S,3S)-2-Hydroxy-3-{[1-(3-hydroxy-2-methyl-phenyl)-methanoyl]-amino}-4-phenyl-butanoyl)-5,5-dimethyl-thiazolidine-4-carboxylic acid 3-ethoxy-benzylamide]",melting point,,105 to 107 °C
same,Ki,HIV-1 protease (Q7S),0.38 nM
same,EC50,HIV-1,119 nM
same,IC50,"46I, 84V, 90M virus",321 nM
"Cc1c(O)cccc1C(=O)N[C@@H](Cc1ccccc1)[C@H](O)C(=O)N1CSC(C)(C)[C@H]1C(=O)N[C@@H](C)c1ccccc1 [Example A20, (R)-3-((2S,3S)-2-Hydroxy-3-{[1-(3-hydroxy-2-methyl-phenyl)-methanoyl]-amino}-4-phenyl-butanoyl)-5,5-dimethyl-thiazolidine-4-carboxylic acid ((S)-1-phenyl-ethyl)-amide]",melting point,,114 to 115 °C
same,Ki,HIV-1 protease (Q7S),0.13 nM
same,EC50,HIV-1,37 nM
same,IC50,"46I, 84V, 90M virus",147 nM
"Cc1c(O)cccc1C(=O)N[C@@H](Cc1ccccc1)[C@H](O)C(=O)N1CSC(C)(C)[C@H]1C(=O)NCC#N [Example A30, (R)-3-((2S,3S)-2-Hydroxy-3-{[1-(3-hydroxy-2-methyl-phenyl)-methanoyl]-amino}-4-phenyl-butanoyl)-5,5-dimethyl-thiazolidine-4-carboxylic acid cyanomethylamide]",Ki,HIV-1 protease (Q7S),1.1 nM
same,EC50,HIV-1,507 nM
same,IC50,"46I, 84V, 90M virus",829 nM
